The structures appear in SMILES notation.

The test system of this experiment is SK-MEL-5 viability, ATP luminescence (CellTiter-Glo), 24 h. The experiment can be described thus: SK-MEL-5 parental cell viability loss, dose response, orthogonal assay for MITF inhibitor project, CellTiter-Glo, cherry-picked, set 3 (AID 493240).
`COc1ccc(Br)cc1/C=C/C(=O)c1ccc(NC(C)=O)cc1`: the AC50 is 26.7 µM.

Regarding `COc1ccc(C(=O)/C=C/C(=O)N(CC(=O)NC2CCCCC2)Cc2cccs2)c(O)c1`, the AC50 is 20.5 µM.

Take `Cc1ccc(C)c(NC(=O)/C(C#N)=C/c2cn(CC(=O)NCc3ccco3)c3ccccc23)c1`: the concentration at half-maximal activity (AC50) is 15.2 µM.

For the compound `COc1cc(/C=C/C(=O)c2ccc3c(c2)OCCO3)cc(Br)c1OCC(=O)N(C)C`, the concentration at half-maximal activity (AC50) is 18 µM.

Turning to `CCn1c(/C=C/N(C)c2ccccc2)[n+](CC)c2ccc(Cl)cc21`, the concentration at half-maximal activity (AC50) is 13.9 µM.

`Cc1ccc(C#CC[N+]2(CC#Cc3ccc(C)cc3)CCCCC2)cc1`: the concentration at half-maximal activity (AC50) is 16 µM.

Consider `CCCCn1c(=N)n(CC(=O)c2ccc(Br)s2)c2ccccc21`, for which the AC50 was 18.5 µM.

On to `CC(C)(c1ccccc1)c1ccc(OCC(O)CNC2CCN(Cc3ccccc3)CC2)cc1` (stereo unspecified), for which the half-maximal activity concentration (AC50) is 19.9 µM.

With `CCN(CC)CCNC(=O)c1ccc(NC(=O)c2cn(-c3ccccc3)nc2-c2cccs2)cc1`, the half-maximal activity concentration (AC50) is 19.9 µM.

For `CC1CCCC(NCC(O)COC(c2ccc(F)cc2)c2ccc(F)cc2)C1C` (stereo unspecified), the AC50 was 20.9 µM.

As to `O=C(/C=C/c1ccc(Cl)c([N+](=O)[O-])c1)c1ccc(O)cc1`, the AC50 was 27.3 µM.

Turning to `COc1cc(/C=N/NC(N)=O)c(Br)cc1OCC(=O)Nc1ccccc1C`, the half-maximal activity concentration (AC50) was 27.2 µM.

As for `COc1ccc(CNCCC(c2ccc(F)cc2)c2ccc(OC)cc2)cc1` (stereo unspecified), the concentration at half-maximal activity (AC50) is 16.6 µM.

As for `Cc1ccc(S(=O)(=O)N2CCCCC2)cc1NC(=O)Cn1ncc(Cl)c(Cl)c1=O`, the concentration at half-maximal activity (AC50) is 19.3 µM.

On to `Cc1ccccc1-c1nc(-c2ccccn2)no1`, for which the AC50 is 20.7 µM.

Take `CC(=O)c1c(C)oc2c1C(=O)c1ccccc1C2=O`: the half-maximal activity concentration (AC50) was 7.62 µM.

As for `CCCCN1CCc2c1nc1ccc(Br)cc1c2N`, the concentration at half-maximal activity (AC50) is 25.6 µM.

With `CCCC(=O)N1CCN(c2ccc(NC(=O)c3ccc([N+](=O)[O-])o3)cc2)CC1`, the concentration at half-maximal activity (AC50) is 24.2 µM.

With `Nc1c2c(=O)oc(-c3ccccc3)cc2nn1-c1ccccc1`, the half-maximal activity concentration (AC50) is 2.49 µM.

For `O=C(C#Cc1ccccc1)c1cccc([N+](=O)[O-])c1`, the AC50 was 26.2 µM.

As to `CCCCN(C)CC(O)Cn1cc(/C=C/C(=O)c2cccs2)c2ccccc21` (stereo unspecified), the AC50 is 18.8 µM.

Take `CCCCC[n+]1ccn(C2=C([O-])c3ccccc3C(=O)/C2=N\S(=O)(=O)c2ccccc2)c1`: the AC50 was 15.5 µM.

Regarding `O=C(CCl)Nc1cccc(S(=O)(=O)N2CCCCCC2)c1`, the concentration at half-maximal activity (AC50) was 11.2 µM.

On to `COc1ccc(S(=O)(=O)Nc2ccc(O)c3ccccc23)cc1`, for which the AC50 was 14.7 µM.

In the case of `COc1ccc(-c2cc(-c3ccccc3)[n+](C)c(-c3ccccc3)c2)cc1`, the AC50 is 21.2 µM.

As to `CC(=O)N1CCc2c(sc(NC(=O)c3ccc([N+](=O)[O-])o3)c2C#N)C1`, the AC50 was 17.2 µM.

As for `N=c1n(CC(=O)c2ccc(Br)s2)c2ccccc2n1Cc1ccccc1`, the concentration at half-maximal activity (AC50) was 20 µM.

In the case of `CC1CN(C(=O)CCC(=O)NCCCN2CCC(Cc3ccccc3)CC2)c2cc(Cl)ccc2O1` (stereo unspecified), the AC50 is 6.98 µM.

Turning to `O=C(COc1ccc(Cl)cc1Cl)Nc1ccccn1`, the AC50 was 19.6 µM.

Consider `CS(=O)(=O)c1ncc(Cl)c(C(=O)Nc2ccc3ccccc3c2)n1`, for which the half-maximal activity concentration (AC50) is 18.3 µM.

For `Cc1ccc(-n2cc(CNCCCn3cccn3)c(-c3cccc(C)c3)n2)cc1`, the AC50 is 20.1 µM.

Consider `Cc1cc(C)cc(NS(=O)(=O)c2ccc3c(c2)c(=O)n(C)c(=O)n3C)c1`, for which the AC50 is 25.5 µM.

For the compound `C#CC(=O)N(c1ccc(OC)cc1OC)C(C(=O)NC1CCCC1)c1cccs1` (stereo unspecified), the AC50 is 19.9 µM.

On to `Cc1cc(C)c[n+](C2=C([O-])c3ccccc3C(=O)/C2=N\S(=O)(=O)c2cccs2)c1`, for which the concentration at half-maximal activity (AC50) is 15.4 µM.

Regarding `Cc1ccccc1OCc1n(CC(=O)OC2CC(C)CCC2C(C)C)c2ccccc2[n+]1C` (stereo unspecified), the AC50 is 15.8 µM.

`Cc1ccc(S(=O)(=O)/N=C2\C(=O)c3ccccc3C([O-])=C2n2cc[n+](CCC(C)C)c2)cc1`: the AC50 is 15.6 µM.

`COc1cccc(/C=N/Nc2ccc(C(=O)O)cc2)c1O`: the AC50 is 19.9 µM.

For `O=C(CCl)Nc1ccc(-c2ccccc2)cc1`, the AC50 is 21.9 µM.

Turning to `CCN1CCCC1CNC(=O)c1ccc2c(c1)NC(=O)/C(=C\c1ccc(C)cc1)S2` (stereo unspecified), the AC50 was 18.7 µM.

As to `CN(C)CCNC(=O)/C(=C/c1ccc(-c2ccc(Cl)cc2Cl)o1)NC(=O)c1ccccc1`, the AC50 is 19.4 µM.

With `O=C(CCl)N1c2ccccc2SCC1c1ccccc1` (stereo unspecified), the AC50 is 21.3 µM.

With `CCN(Cc1ccccc1)c1ccc(/C=N/N=C(N)N)cc1`, the AC50 is 17.9 µM.

Consider `CCCCN1C=CC(=C2C(=O)c3ccccc3C2=O)C=C1`, for which the AC50 was 19.9 µM.

Regarding `Cn1nnnc1Sc1ncnc2scc(-c3ccc(C#N)cc3)c12`, the AC50 was 18.7 µM.

With `CCc1ccc(NC2=CC(=O)C(=O)c3ccccc32)cc1`, the AC50 is 5.85 µM.

Turning to `C=CCNC1=C(Cl)C(=O)c2ccccc2C1=O`, the AC50 was 7.68 µM.

For the compound `CC(C)(C)c1ccc(-c2cn(-c3ccc(Br)cc3)c3[n+]2CCCS3)cc1`, the half-maximal activity concentration (AC50) was 11.4 µM.

`CC1CCC(C(C)C)C(OC(=O)C[n+]2cc(-c3ccc(Cl)cc3)n3c2CCCCC3)C1` (stereo unspecified): the AC50 is 17.2 µM.

Take `CCn1c(/C=C/Nc2ccccc2)[n+](CC)c2cc(Cl)c(Cl)cc21`: the concentration at half-maximal activity (AC50) is 28.7 µM.

Regarding `CC1(C)CC(NC(=O)c2ccc(Cl)c(S(=O)(=O)N(Cc3ccccc3)c3ccccc3)c2)CC(C)(C)N1`, the half-maximal activity concentration (AC50) is 23.3 µM.

Regarding `O=C(COc1ccccc1)N/N=C/c1ccc([N+](=O)[O-])o1`, the AC50 is 22.9 µM.

Turning to `O=C1/C(=N\S(=O)(=O)c2cccs2)C([n+]2ccccc2)=C([O-])c2ccccc21`, the AC50 is 5.27 µM.

Consider `Cc1ccc(C(=O)C[n+]2cc(-c3ccc(C)cc3)n3c2CCCCC3)cc1`, for which the AC50 is 14.4 µM.

Take `Cc1ccc(NC(=O)CCl)cc1S(=O)(=O)N1CCCCCC1`: the AC50 was 28.3 µM.

In the case of `Cc1ccc2sc(N(CCCN(C)C)C(=O)c3ccc(S(=O)(=O)N(C)C4CCCCC4)cc3)nc2c1C`, the AC50 is 26.7 µM.

As to `COc1cc(CNC2CCCC2)cc(Cl)c1OCc1ccccc1Cl`, the AC50 is 16.8 µM.

In the case of `COc1ccc(-n2cc(-c3ccc(C)cc3)[n+]3c2SCC3)cc1`, the concentration at half-maximal activity (AC50) was 19.9 µM.

For the compound `CC1CCC(C(C)C)C(OC(=O)Cn2c(-c3ccc(Br)cc3)[n+](C)c3ccccc32)C1` (stereo unspecified), the concentration at half-maximal activity (AC50) is 15.2 µM.

In the case of `Cc1ccc(NC2=C(Cl)C(=O)c3ccccc3C2=O)cc1`, the half-maximal activity concentration (AC50) was 9.83 µM.

As to `CCc1cc[n+](C2=C([O-])c3ccccc3C(=O)/C2=N\S(=O)(=O)c2cccs2)cc1`, the AC50 is 5.72 µM.

For the compound `COc1ccc(S(=O)(=O)N(C(C)=O)c2ccc(OC(C)=O)c3ccccc23)cc1[N+](=O)[O-]`, the half-maximal activity concentration (AC50) is 17 µM.

For `CC1CCC(C(C)C)C(OC(=O)Cn2c(-c3ccccc3)[n+](C)c3ccccc32)C1` (stereo unspecified), the half-maximal activity concentration (AC50) was 5.45 µM.

In the case of `COC(=O)C1=C(C)N(Cc2ccccc2)C(=NCCc2cccnc2)N[C@H]1c1ccc(Br)cc1`, the half-maximal activity concentration (AC50) was 19.2 µM.

For the compound `O=C(N/N=C/c1ccc([N+](=O)[O-])s1)C(O)c1ccccc1` (stereo unspecified), the AC50 was 35.1 µM.

For `O=C1C(Cl)=C(Nc2ccccc2)C(=O)c2ccccc21`, the AC50 was 6.7 µM.

Consider `N/C(=N\OC(=O)c1ccccc1Cl)c1ccccn1`, for which the half-maximal activity concentration (AC50) is 28.8 µM.

Turning to `O=[N+]([O-])c1ccc(/C=N/n2cnc3ccccc32)s1`, the AC50 is 17.9 µM.

For `CCN1CCN(c2ccc(Nc3ccnc4ccccc34)cc2)CC1`, the AC50 was 23.8 µM.

Take `Cc1ccc(C(C)C)c(OCc2nn(CC(=O)c3ccc(Cl)cc3)c3[n+]2CCCCC3)c1`: the half-maximal activity concentration (AC50) is 18.4 µM.

Consider `CCN1/C(=C/c2cc[n+](C)cc2)C=Cc2cc(C)ccc21`, for which the AC50 was 25.7 µM.

Regarding `COc1ccccc1NC(=O)c1nc(S(=O)(=O)Cc2ccccc2)ncc1Cl`, the AC50 is 29.4 µM.

In the case of `CC1CC2(C)Oc3ccccc3CC2C(C)C1CNCCCN(C)C` (stereo unspecified), the AC50 is 16.2 µM.

`COc1ccc(-c2cc3c(nn2)-c2ccccc2C3=O)cc1`: the AC50 is 15 µM.

On to `CCN(CC)CCNC(=O)C1CCN(S(=O)(=O)c2c(C)noc2/C=C/c2ccccc2F)CC1`, for which the half-maximal activity concentration (AC50) is 28.8 µM.

Turning to `CCC(=O)N1CCN(c2ccc(NC(=O)c3ccc([N+](=O)[O-])o3)cc2Cl)CC1`, the AC50 was 24.8 µM.

In the case of `CC(C)(C)c1ccc(OCCn2ccccc2=O)cc1`, the AC50 is 28.7 µM.

Take `N=c1n(CCN2CCCC2)c2ccccc2n1CC(O)c1ccc(Cl)c(Cl)c1` (stereo unspecified): the AC50 is 16.3 µM.

As for `Cc1ccc(C(=O)N/C(=C\c2ccc(-c3ccc(Br)cc3)o2)C(=O)NCCCN(C)C)cc1`, the half-maximal activity concentration (AC50) was 17.1 µM.

Turning to `O=C1C=C(N(CCO)Cc2ccccc2)c2ccccc2C1=O`, the half-maximal activity concentration (AC50) is 13.3 µM.

Consider `CCNC1=C(Cl)C(=O)c2ccccc2C1=O`, for which the concentration at half-maximal activity (AC50) was 9.44 µM.

Consider `Cc1nc2ccccc2n1/N=C/c1ccc([N+](=O)[O-])s1`, for which the AC50 is 7.45 µM.

Take `Cc1cc(C(C)(C)C)cc(C)c1Cn1c2[n+](c3ccc(C(F)(F)F)cc31)CCCCC2`: the AC50 is 16 µM.

For the compound `CCCCCCCNC(=O)C1(CC2CC(c3ccc(Cl)cc3)=NO2)CCNCC1` (stereo unspecified), the AC50 was 18.2 µM.

As for `COc1ccccc1CNCC(O)Cn1c2ccccc2c2ccccc21` (stereo unspecified), the AC50 is 19 µM.

`CN1CCC(N(C)C(=O)/C=C/c2cn(-c3ccccc3)nc2-c2cccs2)CC1`: the AC50 is 20.1 µM.

With `CCC(C)(C)c1ccc(OCCCC[n+]2ccccc2)c(C(C)(C)CC)c1`, the AC50 was 15.3 µM.

`Cc1ccc2[nH]c(=O)c(CN(CCCN(C)C)C(=O)Nc3cccc(Cl)c3)cc2c1`: the AC50 was 24.3 µM.

For `CN(C)CCNC(=O)/C(=C/c1ccc(-c2ccc(Cl)cc2)o1)NC(=O)c1ccccc1`, the AC50 is 20.4 µM.

For `O=C(Nc1ccc(Cl)c(S(=O)(=O)N2CCOCC2)c1)c1ccc(OCC2CCCO2)cc1` (stereo unspecified), the AC50 was 9.27 µM.

Turning to `COc1cc(NC(=O)COc2ccccc2[N+](=O)[O-])ccc1NC(=O)c1cccs1`, the AC50 is 26.4 µM.

On to `COC1=C(Nc2ccc(O)cc2)C(=O)c2ccccc2C1=O`, for which the AC50 is 8.43 µM.

On to `CCOC(=O)c1ccc(NC(=O)c2ccc(C)c(S(=O)(=O)N3CCOCC3)c2)cc1`, for which the half-maximal activity concentration (AC50) was 17.5 µM.

Turning to `CC1CCN(CC(CS(=O)(=O)c2ccc([N+](=O)[O-])cc2)N2CCC(C)CC2)CC1` (stereo unspecified), the concentration at half-maximal activity (AC50) was 27.3 µM.

As to `CC(C)C(CCNC1CCN(C)CC1)c1ccc(Cl)cc1` (stereo unspecified), the AC50 is 23.1 µM.

Take `CCOC(=O)c1c(C)oc2c1C(=O)c1ccccc1C2=O`: the AC50 was 3.37 µM.

Regarding `O=C(Nc1cccc(Cl)c1)Nc1cc(S(=O)(=O)N2CCCCC2)ccc1Cl`, the concentration at half-maximal activity (AC50) was 22.9 µM.

(Values after PubChem BioAssay AID493240 (Broad Institute, 2011).)
